Data taken from US20070253896A1, “7,9-Dihydro-Purin-8-One and Related Analogs as HSP90-Inhibitors” (CONFORMA THERAPEUTICS CORPORATION, priority 2006, published 2007).

Legend:
[1] = test system: MCF7 breast carcinoma cells; assay: MTS Assay; type: cell-based; conditions: Homo sapiens, concentration giving 50% reduction in viable cell number
Procedure: MTS assays measure the cytotoxicity of geldanamycin derivatives. MTS (3-(4,5-dimethylthiazol-2-yl)-5-(3-carboxymethoxyphenyl)-2-(4-sulfophenyl)-2H-tetrazolium) is a tetrazolium dye that is converted to a formazan product by dehydrogenase enzymes of metabolically active cells (Corey, A. et al. “Use of an aqueous soluble tetrazolium/formazan assay for cell growth assays in culture,” Cancer Commun. 1991, 3, 207-212). Cells were seeded in 96 well plates at 2000 cells/well and allowed to adhere overnight in Dulbecco's modified Eagle's medium supplemented with 10% fetal bovine serum. The final culture volume was 100 μl. Viable cell number was determined by using the Celltiter 96 AQueous Non-radioactive Cell Proliferation Assay (Promega, Madison Wis.). The MTS/PMS (phenazine methosulfate) solution was mixed at a ratio of 20:1, and 20 μL was added per well to 100 μl of culture medium. After 2-4 hours, the formation of the formazan product was measured at 490 nm absorbance using a multiwell plate spectrophotometer. Background was determined by measuring the Abs 490 nm of cell culture medium and MTS-PMS in the absence of cells and was subtracted from all values. Percent viable cells was calculated as follows: % viable cells=(Abs at 490 nm treated cells/Abs at 490 nm untreated cells)×100
The effect of selected compounds of the invention on MCF7 breast carcinoma cells according to the MTS assay is summarized in Table 2. IC50 was defined as the concentration of the compound which gave rise to 50% reduction in viable cell number.

[2] = test system: HER2/Neu protein; assay: HER2 Degradation Assay; type: cell-based; conditions: Homo sapiens; MCF7 breast carcinoma cells, 16 h incubation, flow cytometry; concentration at which there was 50% degradation of the HER2/Neu protein
Procedure: MCF7 breast carcinoma cells (ATCC) were grown in Dulbecco's modified Eagle's medium (DMEM) containing 10% fetal bovine serum (FBS) and 10 mM HEPES, and plated in 24 well plates (50% confluent). Twenty-four hrs later (cells are 65-70% confluent), test compounds were added and incubated overnight for 16 h. […] The wells were washed with 1 mL phosphate buffered saline (PBS), and 200 μL trypsin was added to each well. After trypsinization was complete, 50 μL of FBS was added to each well. Then 200 μL cells was transferred to 96 well plates. The cells were pipetted up and down to obtain a single cell suspension. The plates were centrifuged at 2,500 rpm for 1 min using a Sorvall Legend RT™0 tabletop centrifuge (Kendro Laboratory Products, Asheville, N.C.). The cells were then washed once in PBS containing 0.2% BSA and 0.2% sodium azide (BA buffer). Phycoerythrin (PE) conjugated anti HER2/Neu antibody (Becton Dickinson, #340552), or PE conjugated anti-keyhole limpet hemocyanin [KLH] (Becton Dickinson; #340761) control antibody was added at a dilution of 1:20 and 1:40 respectively (final concentration was 1 μg/mL) and the cells were pipetted up and down to form a single cell suspension, and incubated for 15 mins. The cells were washed twice with 200 μL BA buffer, and resuspended in 200 μL BA buffer, and transferred to FACSCAN tubes with an additional 250 µL BA buffer. Samples were analyzed using a FACS Calibur™ flow cytometer (Becton Dickinson, San Jose, Calif.) equipped with Argon-ion laser that emits 15 mW of 488 nm light for excitation of the PE fluorochrome. 10,000 events were collected per sample. A fluorescence histogram was generated and the mean fluorescence intensity (MFI) of each sample was determined using Cellquest software. The background was defined as the MFI generated from cells incubated with control IgG-PE, and was subtracted from each sample stained with the HER2/Neu antibody. Cells incubated with DMSO were used as untreated controls since the compounds were resuspended in DMSO. Percent degradation of HER2 was calculated as follows: % HER2 degraded=[(MFI untreated cells−MF1 treated cells)/MFI untreated cell]×100
IC50 is defined as the concentration at which there was 50% degradation of the HER2/Neu protein.

IC50 [1] [nM] | IC50 [2] [nM] | SMILES
> 1000 | 160 | COC(=O)c1ccc(Cn2c(=O)n(Cc3ncc(C)c(OC)c3C)c3nc(N)nc(Cl)c32)cc1 [Example 80, 4-[2-Amino-6-chloro-9-(4-methoxy-3,5-dimethyl-pyridin-2-ylmethyl)-8-oxo-8,9-dihydro-purin-7-ylmethyl]-benzoic acid methyl ester]
300 | 42 | Cc1cnc(Cn2c(=O)n(CCn3cccc3)c3c(Cl)nc(N)nc32)c(C)c1I [Example 96, 7-(2-(1H-pyrrol-1-yl)ethyl)-2-amino-6-chloro-9-((4-iodo-3,5-dimethylpyridin-2-yl)methyl)-7H-purin-8(9H)-one]
1000 | 160 | C=CCCCn1c(=O)n(Cc2ncc(C)c(OC)c2C)c2nc(N)nc(Cl)c21 [Example 35, 2-Amino-6-chloro-9-(4-methoxy-3,5-dimethyl-pyridin-2-ylmethyl)-7-pent-4-enyl-7,9-dihydro-purin-8-one]
300 | 90 | CC(=O)n1c(=O)n(Cc2ncc(C)c(I)c2C)c2nc(N)nc(Cl)c21 [Example 105, 7-acetyl-2-amino-6-chloro-9-((4-iodo-3,5-dimethylpyridin-2-yl)methyl)-7H-purin-8(9H)-one]
> 1000 | 120 | Cc1cnc(Cn2c(=O)n(Cc3ccccn3)c3c(Cl)nc(N)nc32)c(C)c1I [Example 99, 2-amino-6-chloro-9-((4-iodo-3,5-dimethylpyridin-2-yl)methyl)-7-(pyridin-2-ylmethyl)-7H-purin-8(9H)-one]
> 1000 | 140 | COc1c(C)cnc(Cn2c(=O)n(CCC=C(C)C)c3c(Cl)nc(N)nc32)c1C [Example 20, 2-Amino-6-chloro-9-(4-methoxy-3,5-dimethyl-pyridin-2-ylmethyl)-7-(4-methyl-pent-3-enyl)-7,9-dihydro-purin-8-one]
> 1000 | 160 | COc1c(C)cnc(Cn2c(=O)n(CCC(F)=C(F)F)c3c(Cl)nc(N)nc32)c1C [Example 71, 2-Amino-6-chloro-9-(4-methoxy-3,5-dimethyl-pyridin-2-ylmethyl)-7-(3,4,4-trifluoro-but-3-enyl)-7,9-dihydro-purin-8-one]
1000 | 170 | COc1c(C)cnc(Cn2c(=O)n(Cc3ccccn3)c3c(Cl)nc(N)nc32)c1C [Example 82, 2-Amino-6-chloro-9-(4-methoxy-3,5-dimethyl-pyridin-2-ylmethyl)-7-pyridin-2-ylmethyl-7,9-dihydro-purin-8-one]
700 | 140 | Cc1cnc(Cn2c(=O)n(CCN(C)C(C)C)c3c(Cl)nc(N)nc32)c(C)c1I [Example 108, 2-amino-6-chloro-9-((4-iodo-3,5-dimethylpyridin-2-yl)methyl)-7-(2-(isopropyl(methyl)amino)ethyl)-7H-purin-8(9H)-one]
1000 | 120 | COc1c(C)cnc(Cn2c(=O)n(CCn3cccc3)c3c(Cl)nc(N)nc32)c1C [Example 89, 2-Amino-6-chloro-9-(4-methoxy-3,5-dimethyl-pyridin-2-ylmethyl)-7-(2-pyrrol-1-yl-ethyl)-7,9-dihydro-purin-8-one]
> 1000 | 130 | CCCN(CCC)CCn1c(=O)n(Cc2ncc(C)c(I)c2C)c2nc(N)nc(Cl)c21 [Example 107, 2-amino-6-chloro-7-(2-(dipropylamino)ethyl)-9-((4-iodo-3,5-dimethylpyridin-2-yl)methyl)-7H-purin-8(9H)-one]
300 | 70 | Cc1cnc(Cn2c(=O)[nH]c3c(Cl)nc(N)nc32)c(C)c1I [Example 6, 2-amino-6-chloro-9-((4-iodo-3,5-dimethylpyridin-2-yl)methyl)-7H-purin-8(9H)-one]
600 | 30 | Cc1cnc(Cn2c(=O)n(CCN(C(C)C)C(C)C)c3c(Cl)nc(N)nc32)c(C)c1I [Example 98, 2-amino-6-chloro-7-(2-(diisopropylamino)ethyl)-9-((4-iodo-3,5-dimethylpyridin-2-yl)methyl)-7H-purin-8(9H)-one]
